How the values were obtained:
Acetylcholinesterase [1] = target: T1, Acetylcholinesterase (Homo sapiens, UniProt P22303); experiment: Inhibition of human AChE at 100 uM using acetylthiocholine as substrate by Ellman's method
Cholinesterase [2] = target: T2, Cholinesterase (Homo sapiens, UniProt P06276); experiment: Inhibition of human BuChE at 100 uM using butyrylthiocholine chloride as substrate by Ellman's method
Cholinesterase [3] = target: T2, Cholinesterase; experiment: Inhibition of human BuChE using butyrylthiocholine chloride as substrate by Ellman's method
Acetylcholinesterase [4] = target: T1, Acetylcholinesterase; experiment: Inhibition of human AChE using acetylthiocholine as substrate by Ellman's method
[5] = Selectivity index, ratio of IC50 for human BuChe to IC50 for human AChE
[6] = Selectivity index, ratio of IC50 for human AChE to IC50 for human BuChe

T2 sequence (P06276 whole entry): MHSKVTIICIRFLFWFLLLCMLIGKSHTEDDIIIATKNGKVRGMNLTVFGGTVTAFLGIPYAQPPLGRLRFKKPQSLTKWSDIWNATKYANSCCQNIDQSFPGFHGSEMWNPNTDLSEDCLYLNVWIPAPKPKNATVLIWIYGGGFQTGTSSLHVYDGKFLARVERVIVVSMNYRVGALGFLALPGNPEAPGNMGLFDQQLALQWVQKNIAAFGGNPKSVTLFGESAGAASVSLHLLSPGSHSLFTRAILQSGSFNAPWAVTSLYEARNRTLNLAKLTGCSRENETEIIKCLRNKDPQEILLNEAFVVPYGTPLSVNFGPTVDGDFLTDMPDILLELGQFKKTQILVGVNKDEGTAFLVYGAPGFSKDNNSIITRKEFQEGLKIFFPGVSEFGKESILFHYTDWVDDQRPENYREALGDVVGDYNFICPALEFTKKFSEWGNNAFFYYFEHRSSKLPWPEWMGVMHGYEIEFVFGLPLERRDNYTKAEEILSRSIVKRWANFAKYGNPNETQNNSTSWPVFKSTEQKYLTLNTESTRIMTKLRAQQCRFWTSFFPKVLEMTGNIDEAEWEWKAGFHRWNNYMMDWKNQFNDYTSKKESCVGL
T1 sequence (P22303 whole entry): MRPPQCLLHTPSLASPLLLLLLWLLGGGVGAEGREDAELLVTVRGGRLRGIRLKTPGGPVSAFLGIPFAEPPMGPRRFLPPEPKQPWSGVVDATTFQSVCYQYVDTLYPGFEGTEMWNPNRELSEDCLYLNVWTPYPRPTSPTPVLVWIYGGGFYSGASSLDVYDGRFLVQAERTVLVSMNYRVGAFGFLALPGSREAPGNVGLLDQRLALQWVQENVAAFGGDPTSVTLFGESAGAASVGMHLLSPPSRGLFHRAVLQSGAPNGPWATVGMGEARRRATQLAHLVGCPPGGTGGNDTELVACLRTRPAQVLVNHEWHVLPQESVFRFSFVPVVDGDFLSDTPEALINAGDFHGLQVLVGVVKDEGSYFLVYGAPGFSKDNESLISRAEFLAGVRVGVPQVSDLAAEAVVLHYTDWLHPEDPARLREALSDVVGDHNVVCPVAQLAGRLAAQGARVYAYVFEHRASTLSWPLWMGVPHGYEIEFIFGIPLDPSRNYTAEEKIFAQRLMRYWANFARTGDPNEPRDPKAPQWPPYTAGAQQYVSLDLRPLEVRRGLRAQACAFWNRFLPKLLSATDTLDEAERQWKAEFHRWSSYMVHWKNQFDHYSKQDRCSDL

| SMILES | inhibition (Acetylcholinesterase [1]) [%] | inhibition (Cholinesterase [2]) [%] | IC50 (Cholinesterase [3]) [µM] | IC50 (Acetylcholinesterase [4]) [µM] | Selectivity Index [5] | Selectivity Index [6] |
| --- | --- | --- | --- | --- | --- | --- |
| CO[C@H]1C[C@H]2C(=C[C@@H]1OC(=O)c1ccco1)[C@H]1CN2Cc2cc3c(cc21)OCO3 | 15.1 | 26.9 | > 100 | > 100 | – | – |
| CO[C@H]1C[C@H]2C(=C[C@@H]1OC(=O)c1ccc(Cl)c([N+](=O)[O-])c1)[C@H]1CN2Cc2cc3c(cc21)OCO3 | 83.7 | 26.5 | > 100 | 1.61 | > 62.1 | < 0.02 |
| CO[C@H]1C[C@H]2C(=C[C@@H]1O)[C@H]1CN2Cc2cc3c(cc21)OCO3 | 9.2 | 9.2 | > 100 | > 100 | – | – |
| CO[C@H]1C[C@H]2C(=C[C@@H]1OC(=O)c1ccc([N+](=O)[O-])cc1Cl)[C@H]1CN2Cc2cc3c(cc21)OCO3 | 48.6 | 27.1 | > 100 | > 100 | – | – |
| O=C(O[C@H]1CN2Cc3cc4c(cc3[C@]13C=C[C@@H](O)C[C@H]23)OCO4)c1ccccc1Cl | – | – | 5.6 | 13 | – | – |
| CO[C@H]1C=C2[C@H]3CN(Cc4cc5c(cc43)OCO5)[C@H]2C[C@@H]1OC(=O)c1ccc([N+](=O)[O-])cc1Cl | 2.3 | 69.8 | 17 | > 100 | < 0.17 | > 5.9 |
| CO[C@H]1C=C2[C@H]3CN(Cc4cc5c(cc43)OCO5)[C@H]2C[C@@H]1OC(=O)c1cc([N+](=O)[O-])ccc1Cl | 1.8 | 40.1 | > 100 | > 100 | – | – |
| CO[C@H]1C[C@H]2C(=C[C@@H]1OC(=O)c1ccc([N+](=O)[O-])cc1)[C@H]1CN2Cc2cc3c(cc21)OCO3 | 48.1 | 26.2 | > 100 | > 100 | – | – |
| COc1ccccc1C(=O)O[C@H]1C=C2[C@H]3CN(Cc4cc5c(cc43)OCO5)[C@H]2C[C@@H]1OC | 15.6 | 30.1 | > 100 | > 100 | – | – |
| COc1ccc(C(=O)O[C@H]2C=C3[C@H]4CN(Cc5cc6c(cc54)OCO6)[C@H]3C[C@@H]2OC)cc1OC | 17.2 | 18.1 | > 100 | > 100 | – | – |
| O=C(O[C@@H]1C=C[C@]23CCN(Cc4cc5c(cc42)OCO5)[C@H]3C1)c1ccccc1[N+](=O)[O-] | – | – | 1.4 | 60 | – | – |
| CO[C@H]1C[C@H]2C(=C[C@@H]1OC(=O)C1CCCCC1)[C@H]1CN2Cc2cc3c(cc21)OCO3 | 1.2 | 20.8 | > 100 | > 100 | < 0.02 | > 57.8 |
| CO[C@H]1C[C@H]2C(=C[C@@H]1OC(=O)c1cccc([N+](=O)[O-])c1)[C@H]1CN2Cc2cc3c(cc21)OCO3 | 55.3 | 18.1 | > 100 | > 100 | – | – |
| CO[C@H]1C[C@H]2C(=C[C@@H]1OC(=O)c1cc(Br)cc([N+](=O)[O-])c1)[C@H]1CN2Cc2cc3c(cc21)OCO3 | 28 | 31.7 | > 100 | > 100 | – | – |
| Cc1ccccc1C(=O)O[C@@H]1C=C[C@]23CCN(Cc4cc5c(cc42)OCO5)[C@H]3C1 | – | – | 8 | > 100 | – | – |
| CO[C@H]1C[C@H]2C(=C[C@@H]1OC(=O)c1cccc(C)c1)[C@H]1CN2Cc2cc3c(cc21)OCO3 | 18.2 | 12.9 | > 100 | > 100 | – | – |
| CO[C@H]1C[C@H]2C(=C[C@@H]1OC(=O)c1cc([N+](=O)[O-])cc([N+](=O)[O-])c1)[C@H]1CN2Cc2cc3c(cc21)OCO3 | 70.8 | 19.2 | > 100 | 13.1 | > 7.66 | < 0.13 |
| CO[C@H]1C=C2[C@H]3CN(Cc4cc5c(cc43)OCO5)[C@H]2C[C@@H]1OC(=O)c1ccc(C)c([N+](=O)[O-])c1 | 30.3 | 20.4 | > 100 | > 100 | – | – |
| CO[C@H]1C[C@H]2C(=C[C@@H]1OC(=O)N1CCCCC1)[C@H]1CN2Cc2cc3c(cc21)OCO3 | 8.8 | 97 | 1.73 | > 100 | – | – |

| SMILES | inhibition (Acetylcholinesterase [1]) [%] | inhibition (Cholinesterase [2]) [%] | IC50 (Cholinesterase [3]) [µM] | IC50 (Acetylcholinesterase [4]) [µM] | Selectivity Index [5] | Selectivity Index [6] |
| --- | --- | --- | --- | --- | --- | --- |
| CO[C@H]1C[C@H]2C(=C[C@@H]1OC(=O)c1cc([N+](=O)[O-])ccc1Cl)[C@H]1CN2Cc2cc3c(cc21)OCO3 | 78.7 | 30 | > 100 | 3.18 | > 31.4 | < 0.03 |
| COc1ccccc1C(=O)O[C@H]1CN2Cc3cc4c(cc3[C@]13C=C[C@@H](O)C[C@H]23)OCO4 | – | – | 3.3 | 90 | – | – |
| CO[C@H]1C[C@H]2C(=C[C@@H]1OC(=O)c1ccc(C)c([N+](=O)[O-])c1)[C@H]1CN2Cc2cc3c(cc21)OCO3 | 81.5 | 6.8 | > 100 | 4.32 | > 23.1 | < 0.04 |
| CO[C@H]1C=C2[C@H]3CN(Cc4cc5c(cc43)OCO5)[C@H]2C[C@@H]1OC(=O)N1CCCCC1 | 10.9 | 88.2 | 6.54 | > 100 | < 0.07 | > 15.3 |
| CO[C@H]1C=C2[C@H]3C[N@@](Cc4cc5c(cc43)OCO5)[C@H]2C[C@@H]1O [MONTANINE] | – | – | > 100 | > 100 | – | – |
| CO[C@H]1C=C2[C@H]3CN(Cc4cc5c(cc43)OCO5)[C@H]2C[C@@H]1OC(=O)c1ccc(Cl)c([N+](=O)[O-])c1 | 4.8 | 13.8 | > 100 | > 100 | – | – |
| CO[C@H]1C[C@H]2C(=C[C@@H]1OC(=O)c1cccs1)[C@H]1CN2Cc2cc3c(cc21)OCO3 | 29.4 | 49.7 | > 100 | > 100 | – | – |
| CO[C@H]1C=C2[C@H]3CN(Cc4cc5c(cc43)OCO5)[C@H]2C[C@@H]1O | 13.7 | 8.4 | – | – | – | – |
| CO[C@H]1C[C@H]2C(=C[C@@H]1OC(=O)c1ccoc1)[C@H]1CN2Cc2cc3c(cc21)OCO3 | 6.8 | 30.2 | > 100 | > 100 | – | – |
| CO[C@H]1C[C@H]2C(=C[C@@H]1OC(=O)c1ccccc1C)[C@H]1CN2Cc2cc3c(cc21)OCO3 | 29.7 | 30.2 | > 100 | > 100 | – | – |
| O=C(O[C@H]1CN2Cc3cc4c(cc3[C@]13C=C[C@@H](O)C[C@H]23)OCO4)c1cccc([N+](=O)[O-])c1 | – | – | > 100 | 4 | – | – |
| CO[C@H]1C[C@H]2C(=C[C@@H]1OCCN1CCCCC1)[C@H]1CN2Cc2cc3c(cc21)OCO3 | 6.5 | 45.2 | > 100 | > 100 | – | – |
| CO[C@H]1C[C@H]2C(=C[C@@H]1OC(=O)c1ccccc1)[C@H]1CN2Cc2cc3c(cc21)OCO3 | 8.5 | 20.1 | > 100 | > 100 | – | – |
| CO[C@H]1C[C@H]2C(=C[C@@H]1OC(=O)c1ccc(C)cc1)[C@H]1CN2Cc2cc3c(cc21)OCO3 | 12.4 | 12.9 | > 100 | > 100 | – | – |
| COc1c2c(cc3c1OCO3)[C@]13C=C[C@H](OC)C[C@H]1N(C2)C[C@H]3OC(=O)c1cccc2ccccc12 | – | – | 0.1 | > 100 | – | – |
| COc1ccc(C(=O)O[C@H]2C=C3[C@H]4CN(Cc5cc6c(cc54)OCO6)[C@H]3C[C@@H]2OC)cc1 | 12.5 | 15.5 | > 100 | > 100 | – | – |
| CO[C@H]1C[C@H]2C(=C[C@@H]1OC(=O)c1ccccc1[N+](=O)[O-])[C@H]1CN2Cc2cc3c(cc21)OCO3 | 34.1 | 45.4 | > 100 | > 100 | – | – |
| COc1cccc(C(=O)O[C@H]2C=C3[C@H]4CN(Cc5cc6c(cc54)OCO6)[C@H]3C[C@@H]2OC)c1 | 19.3 | 20.3 | > 100 | > 100 | – | – |

Source: ChEMBL document CHEMBL5029165, “Derivatives of montanine-type alkaloids and their implication for the treatment of Alzheimer's disease: Synthesis, biological activity and in silico study” (Bioorg Med Chem Lett, 2021)
